Reference: PubChem BioAssay AID182 (DTP/NCI, 2004)
Several values for one entry are separate records, joined by “and”; a condition that tells them apart may be missing. Equal entries are not always repeated. Inconclusive results and toxic doses are left out.

Tested on: BDF1 mice, P388/ADR leukemia ip, median survival T/C
Test: NCI In Vivo Anticancer Drug Screen. Data for tumor model P388 Leukemia resistant to Adriamycin; NSC 123127, Developed at Scr 06 and 41 (intraperitoneal) in B6D2F1 (BDF1) mice
Settings: endpoint: median survival time, higher = longer survival
Description: The antitumor activity of compounds was measured in mice bearing transplantable tumors. Survival or tumor size were measured and the results are expressed as the measurement made in the treated group (T) divided by the measurement made in the vehicle treated control group (C). The tumor model used in this assay is P388 Leukemia resistant to Adriamycin; NSC 123127, Developed at Scr 06 and 41 (intraperitoneal) in B6D2F1 (BDF1) mice

## Nc1ncn(C2OC(CO)C(O)C2O)c(=O)n1 (stereo unspecified)
dose: 6.48 mg/kg/injection, schedule: Q04DX003 (ip), vehicle: saline
  T/C: 210 % of control
dose: 10.8 mg/kg/injection, schedule: Q04DX003 (ip), vehicle: saline
  T/C: 191 % of control
dose: 18.0 mg/kg/injection, schedule: Q04DX003 (ip), vehicle: saline
  T/C: 184 % of control
dose: 30.0 mg/kg/injection, schedule: Q04DX003 (ip), vehicle: saline
  T/C: 87 % of control

## Nc1nncs1
dose: 173.0 mg/kg/injection, schedule: Q04DX003 (ip), vehicle: other
  T/C: 199 % of control
dose: 288.0 mg/kg/injection, schedule: Q04DX003 (ip), vehicle: other
  T/C: 90 % of control

## CCCCC(=O)OCC(=O)[C@]1(O)Cc2c(O)c3c(c(O)c2[C@@H](OC2CC(NC(=O)C(F)(F)F)C(O)C(C)O2)C1)C(=O)c1c(OC)cccc1C3=O (stereo partly specified)
dose: 13.0 mg/kg/injection, schedule: Q01DX004 (ip), vehicle: saline with Tween-80
  T/C: 105 % of control
dose: 15.1 mg/kg/injection, schedule: Q04DX003 (ip), vehicle: other
  T/C: 120 % of control
dose: 21.0 mg/kg/injection, schedule: Q01DX004 (ip), vehicle: saline with Tween-80
  T/C: 113 % of control
dose: 25.2 mg/kg/injection, schedule: Q04DX003 (ip), vehicle: other
  T/C: 119 % of control
dose: 42.0 mg/kg/injection, schedule: Q04DX003 (ip), vehicle: other
  T/C: 122 % of control
dose: 70.0 mg/kg/injection, schedule: Q04DX003 (ip), vehicle: other
  T/C: 155 % of control

## CC[C@@]1(O)C[C@H](OC2CC(N(C)C)C(O)C(C)O2)c2c(cc3c(c2O)C(=O)c2c(O)ccc(O)c2C3=O)[C@H]1C(=O)OC (stereo partly specified)
dose: 4.32 mg/kg/injection, schedule: Q04DX003 (ip), vehicle: other
  T/C: 110 % of control
dose: 7.2 mg/kg/injection, schedule: Q04DX003 (ip), vehicle: other
  T/C: 109 % of control
dose: 12.0 mg/kg/injection, schedule: Q04DX003 (ip), vehicle: other
  T/C: 104 % of control
dose: 20.0 mg/kg/injection, schedule: Q04DX003 (ip), vehicle: other
  T/C: 110 % of control

## N[C@@H](Cc1ccc(N(CCCl)CCCl)cc1)C(=O)O
dose: 3.6 mg/kg/injection, schedule: Q01DX001 (ip), vehicle: saline
  T/C: 313 % of control
dose: 6.0 mg/kg/injection, schedule: Q01DX001 (ip), vehicle: saline
  T/C: 507 % of control
dose: 10.0 mg/kg/injection, schedule: Q01DX001 (ip), vehicle: saline
  T/C: 507 % of control
dose: 16.7 mg/kg/injection, schedule: Q01DX001 (ip), vehicle: saline
  T/C: 406 % of control

## COc1cc([C@@H]2c3cc4c(cc3[C@@H](OC3OC5COC(C)OC5C(O)C3O)[C@H]3COC(=O)[C@H]23)OCO4)cc(OC)c1O (stereo partly specified)
dose: 18.0 mg/kg/injection, schedule: Q04DX003 (ip), vehicle: Klucel (hydroxypropylcellulose) (HPC)
  T/C: 110 % of control
dose: 30.0 mg/kg/injection, schedule: Q04DX003 (ip), vehicle: Klucel (hydroxypropylcellulose) (HPC)
  T/C: 119 % of control
dose: 50.0 mg/kg/injection, schedule: Q04DX003 (ip), vehicle: Klucel (hydroxypropylcellulose) (HPC)
  T/C: 112 % of control

## COC(=O)[C@@]12OC[C@]34[C@H]([C@@H](O)[C@@H]1O)[C@@]1(C)CC(=O)C(O)=C(C)[C@@H]1C[C@H]3OC(=O)[C@H](OC(=O)/C=C(\C)C(C)C)[C@@H]24
dose: 0.65 mg/kg/injection, schedule: Q04DX003 (ip), vehicle: saline + alcohol
  T/C: 113 % of control
dose: 1.08 mg/kg/injection, schedule: Q04DX003 (ip), vehicle: saline + alcohol
  T/C: 93 % of control and 97 % of control
dose: 1.8 mg/kg/injection, schedule: Q04DX003 (ip), vehicle: saline + alcohol
  T/C: 86 % of control and 90 % of control
